For orientation: pIC50 means the negative decadic logarithm of the IC50, by convention in mol/L.

pIC50: −log10 of the molar value.

Here are results for six molecules from ChEMBL document CHEMBL5120926, “Isolation and Synthesis of Azuriaplysins A and B, Bromoditerpenes with an α-Methylene Carbonyl from the Sea Hare Aplysia kurodai” (J Nat Prod, 2022).

The first test concerns HeLa S3. Put plainly: Cytotoxicity against human HeLa S3 cells assessed as inhibition of cell growth incubated for 72 hrs by MTT assay. Format: functional, cell-based. Particulars: Homo sapiens, HeLa S3, 72 h. On the technique in general: Tetrazolium dyes change colour on reduction, which living cells bring about.
For the molecule `C=C(CC[C@@H]1[C@@]2(C)CC[C@H](Br)C(C)(C)[C@@H]2CC[C@@]1(C)O)C(=O)CO` (stereo in doubt; form 1), the pIC50 was 5.09.

Staying with this test, now noted: hela s3.
With `C=C(C=O)CC[C@@H]1[C@@]2(C)CC[C@H](Br)C(C)(C)[C@@H]2CC[C@@]1(C)O` (stereo in doubt; form 1), the pIC50 was 4.40.
Take `C=C(C=O)CC[C@@H]1[C@@]2(C)CC[C@H](Br)C(C)(C)[C@@H]2CC[C@@]1(C)O` (stereo in doubt; form 2): the pIC50 was 4.62.
On the same count and under the same terms, next, `C=C(CC[C@@H]1[C@@]2(C)CC[C@H](Br)C(C)(C)[C@@H]2CC[C@@]1(C)O)C(=O)CO` (stereo in doubt; form 2): 5.28.
Consider `C=C(C=O)CC[C@@H]1[C@@]2(C)CC[C@H](Br)C(C)(C)[C@@H]2CC[C@@]1(C)O` (stereo in doubt; form 3), for which the pIC50 was 4.85.
The same measure, in the same setting: then `C=C(CC[C@@H]1[C@@]2(C)CC[C@H](Br)C(C)(C)[C@@H]2CC[C@@]1(C)O)C(=O)CO` (stereo in doubt; form 3), with 5.39.
